In paper PMC3427755 (Organic & biomolecular chemistry, 2012):
pIC50: −log10 of the molar value.

What was measured:
PKCα = PKCα (Homo sapiens, UniProt P17252); test: Kinase profiling, PKCα; type: biochemical; conditions: read-out: Inhibition rate (%) PKCα
[1] = tested on: 1205Lu (B-Raf^V600E bearing) melanoma cells; test: Melanoma proliferation assay; type: cell-based, human; conditions: dose-dependent, 72 h, Figure 3
[2] = tested on: normal human primary fibroblasts (FF2508); test: Proliferation assay; type: cell-based; conditions: dose-dependent, 72 h, Figure 3
EGFR = EGFR (Homo sapiens, UniProt P00533); test: Kinase profiling, EGFR; type: biochemical; conditions: read-out: Inhibition rate (%) EGFR
P38α = P38α (Homo sapiens, UniProt Q16539); test: Kinase profiling, P38α; type: biochemical; conditions: read-out: Inhibition rate (%) P38α
B-Raf^WT = B-Raf^WT (Homo sapiens, UniProt P15056); test: In vitro B-Raf kinase assay; type: biochemical
LCK = LCK (Homo sapiens, UniProt P06239); test: Kinase profiling, LCK; type: biochemical; conditions: read-out: Inhibition rate (%) LCK
SRC = SRC (Homo sapiens, UniProt P12931); test: Kinase profiling, SRC; type: biochemical; conditions: read-out: Inhibition rate (%) SRC
FGFR1 = FGFR1 (Homo sapiens, UniProt P11362); test: Kinase profiling, FGFR1; type: biochemical
PDGFRα = PDGFRα (Homo sapiens, UniProt P16234); test: Kinase profiling, PDGFRα; type: biochemical; conditions: read-out: Inhibition rate (%) PDGFRα
MET = MET (Homo sapiens, UniProt P08581); test: Kinase profiling, MET; type: biochemical; conditions: read-out: Inhibition rate (%) MET
IKKβ = target: T1, IKKβ (Homo sapiens, UniProt O14920); test: Kinase profiling, IKKβ; type: biochemical
T1 sequence (O14920 1-756): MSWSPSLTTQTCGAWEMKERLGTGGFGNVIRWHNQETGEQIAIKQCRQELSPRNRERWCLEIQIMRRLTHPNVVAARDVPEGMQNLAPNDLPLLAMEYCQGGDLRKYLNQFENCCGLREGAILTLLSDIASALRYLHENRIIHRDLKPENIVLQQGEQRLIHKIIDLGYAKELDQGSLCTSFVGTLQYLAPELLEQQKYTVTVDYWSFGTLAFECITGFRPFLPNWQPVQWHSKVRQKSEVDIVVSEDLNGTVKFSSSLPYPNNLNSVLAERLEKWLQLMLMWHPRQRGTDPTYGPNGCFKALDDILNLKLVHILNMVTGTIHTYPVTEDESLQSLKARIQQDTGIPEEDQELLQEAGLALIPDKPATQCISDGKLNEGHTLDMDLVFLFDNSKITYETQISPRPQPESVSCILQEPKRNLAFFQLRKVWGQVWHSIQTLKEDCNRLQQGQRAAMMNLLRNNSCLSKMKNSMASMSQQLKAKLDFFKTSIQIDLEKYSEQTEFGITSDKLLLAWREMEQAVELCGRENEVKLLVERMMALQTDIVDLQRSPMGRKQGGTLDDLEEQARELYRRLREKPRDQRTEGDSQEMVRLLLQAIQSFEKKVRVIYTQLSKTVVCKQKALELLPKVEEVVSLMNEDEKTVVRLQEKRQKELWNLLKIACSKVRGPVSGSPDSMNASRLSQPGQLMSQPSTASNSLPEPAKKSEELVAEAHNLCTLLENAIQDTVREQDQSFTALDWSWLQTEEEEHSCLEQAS

[3] = tested on: A375 (B-Raf^V600E) malignant melanoma cells; test: Anti-proliferation activity, A375 melanoma cells; type: cell-based, human
[4] = tested on: WM3918 melanoma cells not expressing mutant B-Raf; test: Melanoma proliferation assay; type: cell-based, human; conditions: dose-dependent, 72 h, Figure 3
KDR = KDR (Homo sapiens, UniProt P35968); test: Kinase profiling, KDR; type: biochemical; conditions: read-out: Inhibition rate (%) KDR
CDK2 = CDK2 (Homo sapiens, UniProt P24941); test: Kinase profiling, CDK2; type: biochemical; conditions: read-out: Inhibition rate (%) CDK2
[5] = tested on: WM983B (B-Raf^V600E bearing) melanoma cells; test: Melanoma proliferation assay; type: cell-based, human; conditions: dose-dependent, 72 h, Figure 3
cKIT = cKIT (Homo sapiens, UniProt P10721); test: Kinase profiling, cKIT; type: biochemical; conditions: read-out: Inhibition rate (%) cKIT
IGF1R = IGF1R (Homo sapiens, UniProt P08069); test: Kinase profiling, IGF1R; type: biochemical; conditions: read-out: Inhibition rate (%) IGF1R
AKT1 = AKT1 (Homo sapiens, UniProt P31749); test: Kinase profiling, AKT1; type: biochemical; conditions: read-out: Inhibition rate (%) AKT1
ERK1 = ERK1 (Homo sapiens, UniProt P27361); test: Kinase profiling, ERK1; type: biochemical; conditions: read-out: Inhibition rate (%) ERK1
[6] = read-out: Inhibition rate (%) FGFR1
[7] = read-out: Inhibition rate (%) IKKβ

FGFR1, sequence (P11362 22-822, species assumed): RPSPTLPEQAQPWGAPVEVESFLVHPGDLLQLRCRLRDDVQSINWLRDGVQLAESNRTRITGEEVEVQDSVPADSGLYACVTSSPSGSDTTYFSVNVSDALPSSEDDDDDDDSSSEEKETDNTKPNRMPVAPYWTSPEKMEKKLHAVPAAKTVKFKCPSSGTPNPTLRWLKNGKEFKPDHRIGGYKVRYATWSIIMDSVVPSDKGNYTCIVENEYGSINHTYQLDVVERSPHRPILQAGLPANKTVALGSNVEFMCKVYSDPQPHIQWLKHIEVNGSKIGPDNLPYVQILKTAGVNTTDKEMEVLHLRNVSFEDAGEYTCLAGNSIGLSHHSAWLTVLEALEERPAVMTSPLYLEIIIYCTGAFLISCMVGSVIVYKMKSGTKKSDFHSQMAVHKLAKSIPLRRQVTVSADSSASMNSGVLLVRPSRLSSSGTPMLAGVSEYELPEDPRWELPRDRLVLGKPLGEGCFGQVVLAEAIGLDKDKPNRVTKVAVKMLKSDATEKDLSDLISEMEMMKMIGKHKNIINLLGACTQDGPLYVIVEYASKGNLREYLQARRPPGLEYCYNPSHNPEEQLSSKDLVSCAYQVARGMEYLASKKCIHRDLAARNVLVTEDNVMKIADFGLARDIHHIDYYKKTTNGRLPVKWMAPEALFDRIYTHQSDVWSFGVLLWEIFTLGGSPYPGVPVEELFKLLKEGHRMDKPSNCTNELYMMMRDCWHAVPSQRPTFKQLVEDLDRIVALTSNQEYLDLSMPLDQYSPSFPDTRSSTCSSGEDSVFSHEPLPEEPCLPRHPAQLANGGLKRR
IGF1R, sequence (P08069 31-1367, species assumed): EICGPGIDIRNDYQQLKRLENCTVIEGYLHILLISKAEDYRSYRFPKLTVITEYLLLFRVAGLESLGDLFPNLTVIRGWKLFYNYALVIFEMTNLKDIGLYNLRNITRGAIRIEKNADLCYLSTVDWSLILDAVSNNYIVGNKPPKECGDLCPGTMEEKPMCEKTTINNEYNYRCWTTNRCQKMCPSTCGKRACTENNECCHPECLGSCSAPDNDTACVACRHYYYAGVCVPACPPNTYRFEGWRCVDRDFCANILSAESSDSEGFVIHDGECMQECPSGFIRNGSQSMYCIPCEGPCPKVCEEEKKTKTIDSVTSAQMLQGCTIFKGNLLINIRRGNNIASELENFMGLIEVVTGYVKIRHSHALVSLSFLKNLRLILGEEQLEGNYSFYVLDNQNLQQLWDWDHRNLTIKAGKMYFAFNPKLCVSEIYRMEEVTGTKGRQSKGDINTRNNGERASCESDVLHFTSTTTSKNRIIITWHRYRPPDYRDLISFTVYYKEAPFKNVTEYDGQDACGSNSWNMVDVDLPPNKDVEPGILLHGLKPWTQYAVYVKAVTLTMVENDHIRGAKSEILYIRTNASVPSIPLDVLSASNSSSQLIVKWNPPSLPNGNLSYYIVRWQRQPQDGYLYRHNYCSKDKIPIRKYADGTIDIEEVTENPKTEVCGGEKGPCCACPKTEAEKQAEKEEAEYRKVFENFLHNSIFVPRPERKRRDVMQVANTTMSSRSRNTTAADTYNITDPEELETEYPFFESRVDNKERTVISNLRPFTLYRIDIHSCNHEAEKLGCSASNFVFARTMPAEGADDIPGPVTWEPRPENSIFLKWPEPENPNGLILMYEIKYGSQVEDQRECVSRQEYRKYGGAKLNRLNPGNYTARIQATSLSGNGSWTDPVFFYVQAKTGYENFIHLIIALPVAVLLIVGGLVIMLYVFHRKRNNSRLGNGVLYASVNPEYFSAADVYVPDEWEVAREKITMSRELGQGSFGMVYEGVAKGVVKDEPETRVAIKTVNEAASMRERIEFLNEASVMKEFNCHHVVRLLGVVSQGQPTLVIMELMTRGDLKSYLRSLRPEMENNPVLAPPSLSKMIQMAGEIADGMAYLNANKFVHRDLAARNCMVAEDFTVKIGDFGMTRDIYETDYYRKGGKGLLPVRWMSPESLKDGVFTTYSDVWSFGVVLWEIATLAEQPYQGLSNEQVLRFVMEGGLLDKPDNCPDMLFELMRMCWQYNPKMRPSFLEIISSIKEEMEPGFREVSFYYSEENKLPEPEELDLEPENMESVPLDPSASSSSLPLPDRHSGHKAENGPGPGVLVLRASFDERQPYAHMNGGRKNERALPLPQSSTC
AKT1, sequence (P31749 whole entry, species assumed): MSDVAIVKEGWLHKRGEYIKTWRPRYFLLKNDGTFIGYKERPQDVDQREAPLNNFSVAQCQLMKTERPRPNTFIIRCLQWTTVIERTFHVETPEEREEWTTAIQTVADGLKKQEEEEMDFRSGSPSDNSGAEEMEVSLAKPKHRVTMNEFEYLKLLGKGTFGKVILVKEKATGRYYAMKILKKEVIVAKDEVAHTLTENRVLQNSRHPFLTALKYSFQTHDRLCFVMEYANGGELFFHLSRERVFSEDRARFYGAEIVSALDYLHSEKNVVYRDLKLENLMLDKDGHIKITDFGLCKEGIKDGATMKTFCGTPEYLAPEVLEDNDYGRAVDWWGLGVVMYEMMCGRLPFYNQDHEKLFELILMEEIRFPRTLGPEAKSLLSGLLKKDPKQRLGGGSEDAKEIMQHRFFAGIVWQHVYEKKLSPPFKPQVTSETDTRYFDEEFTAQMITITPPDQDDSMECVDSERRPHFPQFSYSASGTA
SRC, sequence (P12931 whole entry, species assumed): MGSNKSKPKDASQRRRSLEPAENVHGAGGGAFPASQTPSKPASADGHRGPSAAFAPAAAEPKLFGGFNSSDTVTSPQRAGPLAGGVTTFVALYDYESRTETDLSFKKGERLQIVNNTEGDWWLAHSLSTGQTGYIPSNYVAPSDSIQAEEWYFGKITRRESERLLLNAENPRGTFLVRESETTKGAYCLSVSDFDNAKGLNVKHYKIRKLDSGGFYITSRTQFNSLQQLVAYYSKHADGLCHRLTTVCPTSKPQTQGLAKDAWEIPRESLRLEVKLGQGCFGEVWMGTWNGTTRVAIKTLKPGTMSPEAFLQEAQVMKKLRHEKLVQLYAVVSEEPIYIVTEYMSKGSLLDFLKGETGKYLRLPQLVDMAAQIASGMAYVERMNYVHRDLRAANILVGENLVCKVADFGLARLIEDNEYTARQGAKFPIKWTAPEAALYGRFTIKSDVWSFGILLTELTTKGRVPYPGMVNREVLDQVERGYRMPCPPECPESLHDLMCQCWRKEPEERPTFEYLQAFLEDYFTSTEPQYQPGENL
LCK, sequence (P06239 whole entry, species assumed): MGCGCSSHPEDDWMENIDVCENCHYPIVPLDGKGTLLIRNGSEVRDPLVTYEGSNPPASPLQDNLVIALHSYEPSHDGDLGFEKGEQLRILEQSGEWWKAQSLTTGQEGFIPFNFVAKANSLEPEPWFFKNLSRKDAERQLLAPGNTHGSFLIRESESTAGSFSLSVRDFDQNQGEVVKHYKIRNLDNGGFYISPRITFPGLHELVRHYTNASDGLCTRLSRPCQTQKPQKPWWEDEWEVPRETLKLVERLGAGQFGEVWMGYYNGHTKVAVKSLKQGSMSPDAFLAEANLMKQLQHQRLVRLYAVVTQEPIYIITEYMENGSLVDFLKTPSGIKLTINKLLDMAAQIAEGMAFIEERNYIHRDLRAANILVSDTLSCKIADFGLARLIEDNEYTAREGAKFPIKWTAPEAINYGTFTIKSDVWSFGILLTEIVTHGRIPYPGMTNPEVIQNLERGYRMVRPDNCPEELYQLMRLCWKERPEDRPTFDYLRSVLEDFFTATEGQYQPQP
ERK1, sequence (P27361 whole entry, species assumed): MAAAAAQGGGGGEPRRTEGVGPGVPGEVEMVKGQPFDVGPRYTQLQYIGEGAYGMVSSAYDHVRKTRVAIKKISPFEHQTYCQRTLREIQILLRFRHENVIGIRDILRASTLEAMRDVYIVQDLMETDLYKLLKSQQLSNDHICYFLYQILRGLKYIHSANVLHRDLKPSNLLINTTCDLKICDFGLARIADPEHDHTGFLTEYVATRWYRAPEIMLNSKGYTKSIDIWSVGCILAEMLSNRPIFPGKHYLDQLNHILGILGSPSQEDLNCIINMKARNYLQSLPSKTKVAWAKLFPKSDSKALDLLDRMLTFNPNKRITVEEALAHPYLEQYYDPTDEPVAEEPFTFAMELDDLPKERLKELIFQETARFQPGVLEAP
B-Raf^WT, sequence (P15056 433-726): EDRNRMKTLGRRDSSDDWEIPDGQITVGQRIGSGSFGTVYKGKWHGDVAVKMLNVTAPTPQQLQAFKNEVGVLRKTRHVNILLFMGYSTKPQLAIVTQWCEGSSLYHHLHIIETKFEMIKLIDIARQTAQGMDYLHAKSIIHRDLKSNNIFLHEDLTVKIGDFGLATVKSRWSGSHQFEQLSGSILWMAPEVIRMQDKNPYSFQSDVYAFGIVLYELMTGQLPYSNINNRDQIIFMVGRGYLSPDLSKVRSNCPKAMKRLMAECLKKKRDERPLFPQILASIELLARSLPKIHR

## O=C1NC(=S)NC(=O)C1=Cc1ccc(-c2ccc(Br)cc2)o1 [Compound 22f, 5-[5-(4-bromo-phenyl)-furan-2ylmethylene]-2-thioxo-dihydro-pyrimidine-4,6-dione]
PKCα
  inhibition at 1 µM: 16.2%
  inhibition at 5 µM: 26.4%
[1]
  proliferation of 1205Lu cells: significantly inhibited
[2]
  proliferation of FF2508 fibroblasts: significantly more resistant
EGFR
  inhibition at 1 µM: 12.6%
  inhibition at 5 µM: 46.1%
P38α
  inhibition at 5 µM: 7.7%
B-Raf^WT
  pIC50: 6.22
LCK
  inhibition at 1 µM: 10.5%
  inhibition at 5 µM: 10.5%
SRC
  inhibition at 1 µM: 8.6%
  inhibition at 5 µM: 28.3%
FGFR1; 5μM, ATP at Km
  Inhibition rate (%) FGFR1: significantly inhibited
FGFR1; [6]
  inhibition at 1 µM: 15%
  inhibition at 5 µM: 72.2%
PDGFRα
  inhibition at 1 µM: 7.2%
  inhibition at 5 µM: 20.4%
MET
  inhibition at 1 µM: 34.2%
  inhibition at 5 µM: 42.2%
IKKβ; 5μM, ATP at Km
  Inhibition rate (%) IKKβ: significantly inhibited
IKKβ; [7]
  inhibition at 1 µM: 27.8%
  inhibition at 5 µM: 52.1%
[3]; Homo sapiens, A-375, read-out: Tumor growth inhibition rate A375(B-Raf^V600E)
  inhibition at 10 µM: 65.3%
[3]; [I]=10μM
  Tumor growth inhibition rate A375(B-Raf^V600E): potent growth inhibition activity
[4]
  proliferation of WM3918 cells: significantly more resistant
KDR
  inhibition at 1 µM: 3.9%
  inhibition at 5 µM: 6.1%
CDK2
  inhibition at 1 µM: 11.6%
  inhibition at 5 µM: 39.7%
[5]
  proliferation of WM983B cells: significantly inhibited
cKIT
  inhibition at 1 µM: 18.6%
  inhibition at 5 µM: 40.3%
IGF1R
  inhibition at 1 µM: 9.5%
  inhibition at 5 µM: 15.6%
AKT1
  inhibition at 1 µM: 10.8%
  inhibition at 5 µM: 20.3%
ERK1
  inhibition at 1 µM: 14.5%
  inhibition at 5 µM: 30.7%
